Measurements from patent US20260207548A1, “METHODS AND COMPOSITIONS FOR THE TREATMENT OF VASCULAR ANOMALIES” (THE CHILDREN'S MEDICAL CENTER CORPORATION, priority 2022, published 2026).
“Also recorded” adds a separate entry of the source.

Experiments:
[1] = tested on: Hemangioma-derived stem cells (HemSC); assay: IH xenograft model: patient-derived HemSC in Matrigel injected subcutaneously into nude mice, human blood vessel formation; assay type: in vivo
Procedure: MilliporeSigma) was prepared in DMSO. […] Dako, Glostrup, 0823) to stain human ECs. Next, sections were incubated with Alexa Fluor 647 chicken anti-mouse IgG (1:200, Invitrogen, Thermo Fisher Scientific) as a secondary antibody (FIG. 9C, 9D).

[2] = tested on: cholesterol biosynthesis in HUVEC; assay: Endogenous cholesterol in cholesterol-depleted HUVEC by mass spectrometry; assay type: cell-based, human; conditions: 16 hours
Procedure: Cell culture: HUVECs were grown in EBM-2 media (Lonza, CC-3156) and supplemented with EGM-2 bullet kit (Lonza, CC-3162). HUVECs were seeded on 0.5% gelatin-coated 6-well plates at a density of 1.5×10^5 cells/well for overnight.
Methyl-β-cyclodextrin treatment: The day after cell seeding cells were treated with, (MBCD, Sigma #C4555) at a concentration of 2.5 mM to ensure a similar level of endogenous cholesterol among the groups. The treatment with MBCD was completely withdrawn after 4 hours by discarding the media and washed the cells with PBS. […] Cells were then washed with PBS and trypsinized. Following trypsinization cells were washed with PBS and centrifuged (FIG. 4B, 4C).
Cholesterol measurement using Targeted Mass Spectrometry: Lipids were extracted from the cell pellets through one-phase extraction with 202 μL of BuOH: MeOH (1:1) (Sigma #71-36-3 and #67-56-1) that contains […] of cholesterol-d7 (Cayman Chemical #83199-47-7) as the internal standard. The cholesterol analysis was performed on a Thermo Fisher TSQ Altis triple quadrupole mass spectrometer, operated in positive ion mode, coupled to a Vanquish UHPLC system (Thermo Fisher, Waltham, USA) using the transition from precursor mass of m/z 369.3516 (MS1) to m/z 161.1 (MS3) for cholesterol and 376.4 to 161.1 for cholesterol-d7 [REF]. […]

[3] = tested on: breast cancer model; conditions: in vivo; cited from earlier work
[4] = tested on: zebrafish; conditions: in vivo; cited from earlier work
[5] = tested on: β1- and β2-adrenergic receptors; conditions: cited from earlier work
[6] = tested on: Hemangioma-derived stem cells (HemSC); conditions: earlier work; cited from earlier work
[7] = tested on: SREBP2; assay: Western blot of SREBP2 in HemSC undergoing endothelial differentiation; assay type: cell-based, human; conditions: 2 hours on Day 6 of differentiation, hydrochloride
Procedure: (§1) Cells were lysed in a RIPA-based lysis buffer (25 mM Tris HCl pH 7.6, 150 mM NaCl, 1% NP-40, 1% sodium deoxycholate, 0.1% SDS) with protease and phosphatase inhibitors (Cell Signaling Technology). Cell extracts were electrophoresed by sodium dodecyl sulfate-polyacrylamide gel electrophoresis (SDS-PAGE), transferred to nitrocellulose or to polyvinylidene difluoride (PDVF) and probed with SOX18 D-8 (Santa Cruz Biotechnology) or SREBP2 clone 22D5 (MilliporeSigma) and GAPDH (Cell Signaling Technology). All signals were detected by enhanced chemiluminescence. The densitometric analysis was conducted by using Fiji ImageJ software.

[8] = tested on: HemSC; conditions: earlier work; cited from earlier work
[9] = tested on: SREBP2; assay: SOX18 shRNA knockdown HemEC: SREBP2 Western blot and qPCR of SREBP2 target genes; assay type: cell-based, human; conditions: shSOX18 HemEC
Procedure: shRNA knockdown of SOX18: HemEC (n=3) were transduced with SOX18 shRNA lentivirus (TRCN0000017450, Sigma) or an empty vector control virus (Sigma) followed by puromycin (1 μg/mL) selection for 5 days. Thereafter, cells were maintained in full media without puromycin. Knockdown efficiency was confirmed by qPCR and Western Blot (FIG. 7C-7G, 8A-8B).
as §1

[10] = biological target: T1, SOX18 (Homo sapiens, UniProt P35713); conditions: cited from earlier work
T1 sequence (P35713 1-384): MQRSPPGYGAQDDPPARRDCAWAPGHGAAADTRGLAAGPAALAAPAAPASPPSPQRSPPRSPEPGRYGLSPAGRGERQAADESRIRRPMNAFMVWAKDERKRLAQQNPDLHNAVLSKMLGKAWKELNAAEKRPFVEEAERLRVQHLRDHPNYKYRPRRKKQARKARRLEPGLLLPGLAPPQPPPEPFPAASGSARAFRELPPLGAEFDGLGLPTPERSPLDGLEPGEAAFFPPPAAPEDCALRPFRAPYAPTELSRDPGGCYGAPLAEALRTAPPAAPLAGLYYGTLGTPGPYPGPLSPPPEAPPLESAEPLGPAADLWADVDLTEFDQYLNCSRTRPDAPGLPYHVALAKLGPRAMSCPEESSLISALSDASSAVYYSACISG

[11] = tested on: MVP genes (HMGCS1, HMGCR, MVK, ABCA1); assay: Mevalonate pathway (MVP) gene transcripts in differentiating HemSC, bulk RNA-seq and qPCR; assay type: cell-based, human; conditions: for transcripts encoding MVP enzymes (incl. HMGCR, HMGCS1, MVK), RNA-seq: 20 μM, 2 hours, Day 6 of differentiation, hydrochloride
[12] = tested on: infantile hemangioma; conditions: infants with IH; cited from earlier work
[13] = tested on: HemSC; conditions: atorvastatin 0.1 μM, 6 days
[14] = tested on: LDL-receptor; assay: LDL-receptor mRNA in HemSC as indirect measure of HMGCR inhibition; assay type: cell-based, human; conditions: 1 μM atorvastatin, 24 hours

With CCC(C)(C)C(=O)O[C@H]1C[C@@H](C)C=C2C=C[C@H](C)[C@H](CC[C@@H]3C[C@@H](O)CC(=O)O3)[C@H]21 [simvastatin] the “lowest dose that showed significant reduction in IH vessels” value ([1]; simvastatin dose response 0.1-10 mg/kg/d) was 1 mg/kg/day.

For O=C(O)c1c(O)cccc1CCc1ccc2ccccc2c1 [Sm4], the endogenous cholesterol levels ([2]; 40 μM Sm4 after MBCD depletion) is listed as “significantly reduced; also recorded: decreased new synthesis of cholesterol”, the “tumor angio- and lymph-angiogenesis” value [3] is listed as “suppresses” and the vascular development [4] is listed as “suppresses vascular development in zebrafish”.

For CC(C)NC[C@H](O)COc1cccc2ccccc12 (single isomer, unassigned) [S(−) enantiomer], the “β1 and β2-adrenergic receptor antagonism” value [5] is given as “potent antagonist”.

In the case of CC(C)NC[C@@H](O)COc1cccc2ccccc12.Cl [R(+) propranolol, R(+) propranolol hydrochloride], the “HemSC vasculogenesis in vivo” value [6] is listed as “inhibits”, the “mature 62 kDa SREBP2” value [7] is listed as “decreased mature 62 kDa SREBP2” and the “mature 62 kDa SREBP2” value ([7]; listed as R+ propranolol) is listed as “decreased levels of 62 kDa mature SREBP2”. For the same compound, the “HemSC endothelial differentiation in vitro” value [8] was “inhibits”, the “HMGCS1 and HMGCR mRNA levels” value [9] was “did not reduce the mRNA levels” and the endogenous cholesterol levels ([2]; 20 μM R+ propranolol after MBCD depletion, hydrochloride) was “significantly reduced; also recorded: decreased new synthesis of cholesterol”. For the same compound, the SOX18 activity [10] was “inhibit”, the “transcripts encoding MVP enzymes (incl. HMGCR, HMGCS1, MVK), RNA-seq” value [11] was “significantly reduced transcripts encoding several enzymes of the MVP” and the “transcripts encoding MVP enzymes (incl. HMGCR, HMGCS1, MVK), RNA-seq” value ([11]; listed as R+ propranolol) was “inhibits eight enzymes in the mevalonate pathway”. For the same compound, the “ABCA1 mRNA, qPCR” value ([11]; 2 hours or 4 days treatment) was “upregulated”, the “HMGCS1, HMGCR and MVK mRNA, qPCR” value ([11]; 2 hours or 4 days treatment) was “Downregulation” and the “downregulation of MVP transcripts” value ([11]; Day 4 of differentiation) was “not seen”.

In the case of CC(C)NC[C@@H](O)COc1ccc(CC(N)=O)cc1 [R(+) atenolol], the SOX18 activity [10] is given as “inhibit”.

For CC(C)NCC(O)COc1cccc2ccccc12 (stereo not drawn) [propranolol], the complete response rate [12] is listed as 60% and the “β1 and β2-adrenergic receptor antagonism” value [5] is listed as “non-selective antagonist”.

With CC(C)c1c(C(=O)Nc2ccccc2)c(-c2ccccc2)c(-c2ccc(F)cc2)n1CC[C@@H](O)C[C@@H](O)CC(=O)O [atorvastatin] the “human CD31+ blood vessel formation from HemSC” value ([1]; atorvastatin 1 mg/kg/d, 7 days) was “significantly blocked the formation of human blood vessels; also recorded: significantly inhibited human CD31+ blood vessel formation”, the “HemSC blood vessel formation in xenograft model” value ([1]; overall statement, no single dose) was “inhibited blood vessel formation; also recorded: significantly reduced HemSC blood vessel formation in a dose-dependent manner; also recorded: inhibit IH vessel formation” and the “VEGF-B induced endothelial differentiation (mRNA of CD31 and VE-Cadherin)” value [13] was “significantly inhibited endothelial differentiation; also recorded: inhibited VEGF-B induced endothelial differentiation”. The “LDL-R mRNA” value [14] was “significant upregulation of LDL-R mRNA; also recorded: increase LDL receptor mRNA”.
